Three compounds from ChEMBL document CHEMBL5696442, “Discovery of type II inhibitors of TGFβ-activated kinase 1 (TAK1) and mitogen-activated protein kinase kinase kinase kinase 2 (MAP4K2)” (J Med Chem, 2015) can be followed below.

Molecules are shown by their SMILES. Active and inactive are the calls of the source. No cut-off for these calls is given here. A value given as a limit tells only on which side of the number the result lay.

In test [1] the target is Myosin light chain kinase, smooth muscle (Homo sapiens) (UniProt Q15746). Kind of test: Inhibition of MYLK (unknown origin) at 1 uM by Ambit Kinomescan binding assay relative to control; values are per cent of control.
The target of test [2] is cAMP-dependent protein kinase catalytic subunit PRKX (Homo sapiens) (UniProt P51817). Kind of test: Inhibition of PRKX (unknown origin) at 1 uM by Ambit Kinomescan binding assay relative to control.
The target in test [3] is Tyrosine-protein kinase receptor Tie-1 (Homo sapiens) (UniProt P35590). Nature of the test: Inhibition of TIE1 (unknown origin) at 1 uM by Ambit Kinomescan binding assay relative to control.
Test [4] addresses Receptor tyrosine-protein kinase erbB-4 (Homo sapiens) (UniProt Q15303). Kind of test: Inhibition of ERBB4 (unknown origin) at 1 uM by Ambit Kinomescan binding assay relative to control.
Test [5] deals with RAC-gamma serine/threonine-protein kinase (Homo sapiens) (UniProt Q9Y243). Nature of the test: Inhibition of AKT3 ATP Loop labeling site in human A-375 cells at 5 uM by KiNativ Profiling analysis relative to control. The class given is cell-based.
Test [6] deals with T1, Scaffold protein ILK (Homo sapiens) (UniProt Q13418).
T1 sequence (whole entry): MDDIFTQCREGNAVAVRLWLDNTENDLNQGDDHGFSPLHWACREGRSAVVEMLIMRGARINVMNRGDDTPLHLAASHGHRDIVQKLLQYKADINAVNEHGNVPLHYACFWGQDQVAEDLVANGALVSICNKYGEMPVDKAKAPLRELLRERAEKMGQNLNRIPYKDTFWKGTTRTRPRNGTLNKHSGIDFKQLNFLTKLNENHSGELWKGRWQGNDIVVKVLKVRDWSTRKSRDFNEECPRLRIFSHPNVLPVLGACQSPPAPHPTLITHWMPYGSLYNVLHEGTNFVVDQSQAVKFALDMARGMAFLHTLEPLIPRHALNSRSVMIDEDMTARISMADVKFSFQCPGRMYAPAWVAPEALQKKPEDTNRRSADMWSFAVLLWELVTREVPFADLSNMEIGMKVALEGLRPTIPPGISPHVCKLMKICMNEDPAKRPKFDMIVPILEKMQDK
Nature of the test: Inhibition of ILK K1 labeling site in human Huh-7 cells at 10 uM by KiNativ Profiling analysis relative to control. It is filed as cell-based.

Test [7] deals with TRAF2 and NCK-interacting protein kinase (Homo sapiens) (UniProt Q9UKE5). Kind of test: Inhibition of ZC2 Lys2 labeling site in human A-375 cells at 5 uM by KiNativ Profiling analysis relative to control. The class given is cell-based.
Chain of TRAF2 and NCK-interacting protein kinase (Homo sapiens) (Q9UKE5 whole entry, looked up): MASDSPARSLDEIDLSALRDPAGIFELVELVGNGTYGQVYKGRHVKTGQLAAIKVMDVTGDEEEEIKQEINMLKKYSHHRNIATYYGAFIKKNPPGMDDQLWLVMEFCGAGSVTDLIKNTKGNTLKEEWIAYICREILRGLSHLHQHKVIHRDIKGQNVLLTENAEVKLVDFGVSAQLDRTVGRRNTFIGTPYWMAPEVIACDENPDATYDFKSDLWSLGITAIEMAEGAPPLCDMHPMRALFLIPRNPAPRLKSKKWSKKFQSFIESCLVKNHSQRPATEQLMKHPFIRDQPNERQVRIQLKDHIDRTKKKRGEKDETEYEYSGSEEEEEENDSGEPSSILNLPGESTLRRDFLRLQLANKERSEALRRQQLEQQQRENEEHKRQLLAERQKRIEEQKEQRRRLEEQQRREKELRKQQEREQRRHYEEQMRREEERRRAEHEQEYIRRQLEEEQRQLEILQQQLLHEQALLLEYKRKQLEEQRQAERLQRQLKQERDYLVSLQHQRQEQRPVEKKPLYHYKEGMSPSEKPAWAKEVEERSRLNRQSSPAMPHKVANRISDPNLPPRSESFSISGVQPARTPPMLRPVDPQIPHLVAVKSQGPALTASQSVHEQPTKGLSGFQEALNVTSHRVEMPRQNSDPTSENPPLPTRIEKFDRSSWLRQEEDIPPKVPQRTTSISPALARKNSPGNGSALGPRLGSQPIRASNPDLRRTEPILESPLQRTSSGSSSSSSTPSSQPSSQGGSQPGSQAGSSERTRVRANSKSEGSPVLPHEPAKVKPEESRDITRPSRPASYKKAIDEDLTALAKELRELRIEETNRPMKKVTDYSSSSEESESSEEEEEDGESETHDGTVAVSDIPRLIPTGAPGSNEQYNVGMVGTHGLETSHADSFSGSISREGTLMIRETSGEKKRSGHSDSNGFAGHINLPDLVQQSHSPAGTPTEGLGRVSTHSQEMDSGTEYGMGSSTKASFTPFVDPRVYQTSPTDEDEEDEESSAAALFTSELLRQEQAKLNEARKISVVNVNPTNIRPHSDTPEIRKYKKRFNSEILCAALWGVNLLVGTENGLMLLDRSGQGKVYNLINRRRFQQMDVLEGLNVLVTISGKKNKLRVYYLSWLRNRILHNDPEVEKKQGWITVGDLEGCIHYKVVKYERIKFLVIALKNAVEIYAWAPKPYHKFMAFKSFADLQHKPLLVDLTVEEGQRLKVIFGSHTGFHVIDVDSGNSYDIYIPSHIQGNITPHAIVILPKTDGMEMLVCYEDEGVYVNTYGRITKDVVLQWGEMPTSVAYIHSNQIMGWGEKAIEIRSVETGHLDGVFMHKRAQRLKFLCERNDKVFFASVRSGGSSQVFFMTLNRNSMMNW
The target in test [8] is Serine/threonine-protein kinase 38 (Homo sapiens) (UniProt Q15208). Nature of the test: Inhibition of NDR1 K1 labeling site in human Huh-7 cells at 1 uM by KiNativ Profiling analysis relative to control. It is filed as cell-based.
Test [9] has as its target Serine/threonine-protein kinase PLK4 (Homo sapiens) (UniProt O00444). Kind of test: Inhibition of PLK4 (unknown origin) at 10 uM by Ambit Kinomescan binding assay.
Test [10] concerns the target Fibroblast growth factor receptor 3 (Homo sapiens) (UniProt P22607). Kind of test: Inhibition of FGFR3 (unknown origin) at 10 uM by Ambit Kinomescan binding assay relative to control.
Test [11] has as its target T2, Mitogen-activated protein kinase kinase kinase kinase 2 (Homo sapiens) (UniProt Q12851).
T2 sequence (whole entry): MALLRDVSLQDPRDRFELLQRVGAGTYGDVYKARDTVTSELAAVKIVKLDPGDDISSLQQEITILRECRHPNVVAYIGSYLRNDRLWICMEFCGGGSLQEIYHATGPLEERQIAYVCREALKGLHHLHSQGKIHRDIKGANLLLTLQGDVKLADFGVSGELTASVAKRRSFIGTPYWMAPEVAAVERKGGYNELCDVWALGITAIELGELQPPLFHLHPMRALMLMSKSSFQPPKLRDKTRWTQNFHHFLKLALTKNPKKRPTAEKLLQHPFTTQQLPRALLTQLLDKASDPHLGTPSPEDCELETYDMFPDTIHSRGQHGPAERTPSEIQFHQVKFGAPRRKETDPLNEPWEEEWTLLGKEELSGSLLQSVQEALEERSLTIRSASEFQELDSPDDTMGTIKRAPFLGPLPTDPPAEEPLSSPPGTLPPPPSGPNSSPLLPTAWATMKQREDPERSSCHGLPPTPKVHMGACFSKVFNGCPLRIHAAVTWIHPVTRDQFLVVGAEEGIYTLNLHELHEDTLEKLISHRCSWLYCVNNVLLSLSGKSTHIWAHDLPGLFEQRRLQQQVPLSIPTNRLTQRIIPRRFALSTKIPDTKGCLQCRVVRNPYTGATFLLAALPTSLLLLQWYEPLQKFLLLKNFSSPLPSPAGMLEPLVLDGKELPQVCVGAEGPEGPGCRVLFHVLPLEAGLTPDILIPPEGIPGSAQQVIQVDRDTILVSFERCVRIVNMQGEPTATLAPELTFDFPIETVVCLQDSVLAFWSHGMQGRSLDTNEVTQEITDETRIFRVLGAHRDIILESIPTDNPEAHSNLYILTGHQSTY
Kind of test: Inhibition of MAP4K2 (GCK) Lys1 labeling site in human A-375 cells at 5 uM by KiNativ Profiling analysis relative to control. It is filed as cell-based.

Test [12] has as its target Serine/threonine-protein kinase B-raf (Homo sapiens, UniProt P15056). Kind of test: Inhibition of BRAF Lys2 labeling site in human Huh-7 cell lysate at 1 uM by KiNativ Profiling analysis relative to control. The class given is subcellular.
The target of test [13] is Focal adhesion kinase 1 (Homo sapiens) (UniProt Q05397). Nature of the test: Inhibition of FAK ACT labeling site in human Huh-7 cell lysate at 1 uM by KiNativ Profiling analysis relative to control. The class given is subcellular.
Chain of Focal adhesion kinase 1 (Homo sapiens) (Q05397 2-1052 limits assumed): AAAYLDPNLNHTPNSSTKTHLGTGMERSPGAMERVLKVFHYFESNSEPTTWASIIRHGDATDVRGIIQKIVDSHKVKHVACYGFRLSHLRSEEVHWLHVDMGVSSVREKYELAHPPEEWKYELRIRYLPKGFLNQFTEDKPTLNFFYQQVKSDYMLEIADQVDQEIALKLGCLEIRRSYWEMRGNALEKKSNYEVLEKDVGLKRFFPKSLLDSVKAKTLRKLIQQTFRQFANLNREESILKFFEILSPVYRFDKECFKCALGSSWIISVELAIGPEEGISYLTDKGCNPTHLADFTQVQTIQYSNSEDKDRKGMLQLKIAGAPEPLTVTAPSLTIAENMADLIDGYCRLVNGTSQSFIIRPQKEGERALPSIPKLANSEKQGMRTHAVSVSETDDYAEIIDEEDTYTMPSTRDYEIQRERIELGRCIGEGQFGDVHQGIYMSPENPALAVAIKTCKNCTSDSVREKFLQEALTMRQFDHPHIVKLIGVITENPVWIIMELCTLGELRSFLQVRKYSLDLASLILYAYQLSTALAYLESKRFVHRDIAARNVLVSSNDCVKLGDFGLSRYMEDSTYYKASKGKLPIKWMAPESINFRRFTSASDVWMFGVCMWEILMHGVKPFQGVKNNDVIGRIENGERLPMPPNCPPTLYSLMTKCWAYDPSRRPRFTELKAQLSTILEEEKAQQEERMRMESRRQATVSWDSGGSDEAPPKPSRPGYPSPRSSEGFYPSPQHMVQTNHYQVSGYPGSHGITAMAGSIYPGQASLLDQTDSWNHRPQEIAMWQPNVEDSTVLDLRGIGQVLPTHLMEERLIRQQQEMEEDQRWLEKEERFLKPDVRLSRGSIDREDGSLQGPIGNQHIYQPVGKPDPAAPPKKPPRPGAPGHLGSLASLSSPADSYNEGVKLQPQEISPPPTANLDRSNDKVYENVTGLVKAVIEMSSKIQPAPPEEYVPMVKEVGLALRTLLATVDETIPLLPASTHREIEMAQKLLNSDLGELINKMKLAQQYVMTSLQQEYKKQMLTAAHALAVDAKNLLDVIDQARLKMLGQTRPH
Test [14] concerns the target STE20-related kinase adapter protein alpha (Homo sapiens) (UniProt Q7RTN6). Nature of the test: Inhibition of STLK5 ACT labeling site in human Huh-7 cell lysate at 1 uM by KiNativ Profiling analysis relative to control. The class given is subcellular.

Chain of Serine/threonine-protein kinase PLK4 (Homo sapiens) (O00444 whole entry): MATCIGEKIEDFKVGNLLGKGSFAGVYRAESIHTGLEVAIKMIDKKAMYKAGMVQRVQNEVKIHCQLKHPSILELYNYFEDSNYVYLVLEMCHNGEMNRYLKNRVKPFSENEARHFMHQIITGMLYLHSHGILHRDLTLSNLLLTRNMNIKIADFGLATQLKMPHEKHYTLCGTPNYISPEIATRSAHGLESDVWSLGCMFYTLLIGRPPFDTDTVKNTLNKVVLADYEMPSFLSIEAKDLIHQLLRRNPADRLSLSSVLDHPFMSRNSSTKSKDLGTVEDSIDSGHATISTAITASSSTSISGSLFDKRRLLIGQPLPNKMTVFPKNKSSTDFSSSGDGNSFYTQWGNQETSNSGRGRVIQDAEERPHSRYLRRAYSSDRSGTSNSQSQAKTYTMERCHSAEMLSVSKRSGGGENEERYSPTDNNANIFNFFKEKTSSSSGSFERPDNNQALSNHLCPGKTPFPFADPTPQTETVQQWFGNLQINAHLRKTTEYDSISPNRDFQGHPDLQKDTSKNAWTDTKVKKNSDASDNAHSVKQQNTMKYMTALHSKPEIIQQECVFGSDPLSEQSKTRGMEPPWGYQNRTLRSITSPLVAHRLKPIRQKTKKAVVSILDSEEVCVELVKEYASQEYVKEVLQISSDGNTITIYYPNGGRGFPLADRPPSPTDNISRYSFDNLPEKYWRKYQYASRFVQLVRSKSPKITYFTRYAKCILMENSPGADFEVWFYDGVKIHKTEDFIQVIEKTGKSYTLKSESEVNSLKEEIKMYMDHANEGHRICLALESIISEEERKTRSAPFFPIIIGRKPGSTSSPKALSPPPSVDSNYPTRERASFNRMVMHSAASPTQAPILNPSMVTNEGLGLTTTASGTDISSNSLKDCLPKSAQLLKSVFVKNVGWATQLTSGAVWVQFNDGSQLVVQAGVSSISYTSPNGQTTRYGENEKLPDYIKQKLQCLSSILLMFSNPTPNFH
Chain of STE20-related kinase adapter protein alpha (Homo sapiens) (Q7RTN6 whole entry): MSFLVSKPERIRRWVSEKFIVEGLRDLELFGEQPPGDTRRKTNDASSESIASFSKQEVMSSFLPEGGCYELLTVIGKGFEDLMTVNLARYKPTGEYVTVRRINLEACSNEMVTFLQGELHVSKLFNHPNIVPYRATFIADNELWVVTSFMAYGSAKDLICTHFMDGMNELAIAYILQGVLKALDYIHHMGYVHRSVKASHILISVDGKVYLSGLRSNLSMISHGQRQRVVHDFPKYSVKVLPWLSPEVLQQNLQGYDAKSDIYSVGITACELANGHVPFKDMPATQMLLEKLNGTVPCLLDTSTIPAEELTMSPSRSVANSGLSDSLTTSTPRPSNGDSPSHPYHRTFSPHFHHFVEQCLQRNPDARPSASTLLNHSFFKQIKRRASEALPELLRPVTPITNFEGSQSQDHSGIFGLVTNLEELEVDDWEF
Chain of Receptor tyrosine-protein kinase erbB-4 (Homo sapiens) (Q15303 whole entry): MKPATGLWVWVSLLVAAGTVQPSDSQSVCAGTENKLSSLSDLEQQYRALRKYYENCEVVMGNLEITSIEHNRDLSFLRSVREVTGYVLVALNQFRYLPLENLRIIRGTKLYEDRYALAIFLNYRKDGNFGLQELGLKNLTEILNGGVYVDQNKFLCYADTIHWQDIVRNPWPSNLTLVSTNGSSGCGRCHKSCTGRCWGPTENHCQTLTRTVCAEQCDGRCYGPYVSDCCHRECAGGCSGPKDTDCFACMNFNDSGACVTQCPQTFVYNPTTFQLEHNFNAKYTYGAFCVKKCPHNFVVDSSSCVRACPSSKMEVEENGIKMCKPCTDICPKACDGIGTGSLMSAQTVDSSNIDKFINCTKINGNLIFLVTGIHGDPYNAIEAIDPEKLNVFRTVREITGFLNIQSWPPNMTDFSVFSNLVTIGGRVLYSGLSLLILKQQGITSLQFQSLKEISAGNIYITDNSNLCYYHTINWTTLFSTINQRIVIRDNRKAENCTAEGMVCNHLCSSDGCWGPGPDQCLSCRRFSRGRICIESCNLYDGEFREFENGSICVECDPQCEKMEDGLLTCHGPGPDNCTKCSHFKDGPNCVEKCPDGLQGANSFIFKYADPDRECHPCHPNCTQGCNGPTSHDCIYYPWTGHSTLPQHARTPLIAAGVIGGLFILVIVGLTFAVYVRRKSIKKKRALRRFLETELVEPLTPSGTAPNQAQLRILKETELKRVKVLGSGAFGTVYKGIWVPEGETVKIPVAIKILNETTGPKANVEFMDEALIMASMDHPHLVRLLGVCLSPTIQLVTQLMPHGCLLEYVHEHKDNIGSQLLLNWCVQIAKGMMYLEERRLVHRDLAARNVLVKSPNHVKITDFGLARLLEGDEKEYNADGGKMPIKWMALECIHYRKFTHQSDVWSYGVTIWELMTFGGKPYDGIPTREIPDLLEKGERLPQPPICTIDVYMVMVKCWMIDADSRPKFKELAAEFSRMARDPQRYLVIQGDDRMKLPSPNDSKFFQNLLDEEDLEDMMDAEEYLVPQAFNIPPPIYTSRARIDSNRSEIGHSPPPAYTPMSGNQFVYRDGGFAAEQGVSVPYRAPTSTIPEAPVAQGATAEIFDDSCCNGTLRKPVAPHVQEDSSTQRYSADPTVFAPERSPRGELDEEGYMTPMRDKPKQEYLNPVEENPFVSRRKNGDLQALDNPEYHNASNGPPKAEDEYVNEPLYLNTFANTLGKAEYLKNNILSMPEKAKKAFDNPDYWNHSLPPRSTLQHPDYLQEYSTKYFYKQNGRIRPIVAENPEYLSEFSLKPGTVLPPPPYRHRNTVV

With `CCN1CCN(Cc2ccc(NC(=O)c3ccc(C)c(/C=C/c4cnc5[nH]ccc5c4OC)c3)cc2C(F)(F)F)CC1`, in test [1], the residual activity – broadly, what remains of the control signal, in per cent – came to 81%. Besides, the inhibition (in general, the relative decrease from the control value, in per cent) is 57% in test [2], 0.95% in test [3], 3% in [4] and 13.3% in test [5].
As for `CCN1CCN(Cc2ccc(NC(=O)c3ccc(C)c(Oc4ccnc5[nH]ccc45)c3)cc2C(F)(F)F)CC1`, the inhibition in [6] was -5.7%; in [7], 92.7%; in test [8] it was 4.4%; in test [10] it was 9.4%; in test [11] it was greater than 99.5%. Besides, the inhibition entry in test [9] was “inactive”.
In the case of `CNc1cc(Oc2cc(C(=O)Nc3cc(N4CCN(C)CC4)cc(C(F)(F)F)c3)ccc2C)ncn1`, the inhibition in test [12] is -1.4%; in [13], 16%; in [14], 5.3%.
